Test results: patent US8163921B2, “Hepatitis C virus inhibitors” (Bristol-Myers Squibb Company, priority 2008, dated 2012)
Where two headings read alike, the source gives them in different places.

Tests used:
[1] = system: HCV replicon in HUH-7 cells; experiment: HCV replicon FRET assay; assay type: cell-based, HCV strain 1b; details: Hepatitis C virus
From the text: An HCV replicon whole cell system was established as described by Lohmann V, Korner F, Koch J, Herian U, Theilmann L, Bartenschlager R., Science 285(5424):110-3 (1999). This system enabled us to evaluate the effects of our HCV Protease compounds on HCV RNA replication. Briefly, using the HCV strain 1b sequence described in the Lohmann paper (Assession number:AJ238799), an HCV cDNA was synthesized by Operon Technologies, Inc. (Alameda, Calif.), and the full-length replicon was then assembled in plasmid pGem9zf(+) (Promega, Madison, Wis.) using standard molecular biology techniques. The replicon consists of (i) the HCV 5′ UTR fused to the first 12 amino acids of the capsid protein, (ii) the neomycin phosphotransferase gene (neo), (iii) the IRES from encephalomyocarditis virus (EMCV), and (iv) HCV NS3 to NS5B genes and the HCV 3′ UTR. Plasmid DNAs were linearized with ScaI and RNA transcripts were synthesized in vitro using the T7 MegaScript transcription kit (Ambion, Austin, Tex.) according to manufacturer's directions. In vitro transcripts of the eDNA were transfected into the human hepatoma cell line, HUH-7. […] Resulting cell lines were characterized for positive and negative strand RNA production and protein production over time.
The HCV replicon FRET assay was developed to monitor the inhibitory effects of compounds described in the disclosure on HCV viral replication. HUH-7 cells, constitutively expressing the HCV replicon, were grown in Dulbecco's Modified Eagle Media (DMEM) (Gibco-BRL) containing 10% Fetal calf serum (FCS) (Sigma) and 1 mg/ml G418 (Gibco-BRL). Cells were seeded the night before (1.5×10^4 cells/well) in 96-well tissue-culture sterile plates. Compound and no compound controls were prepared in DMEM containing 4% FCS, 1:100 Penicillin/Streptomysin (Gibco-BRL), 1:100 L-glutamine and 5% DMSO in the dilution plate (0.5% DMSO final concentration in the assay). Compound/DMSO mixes were added to the cells and incubated for 4 days at 37° C. After 4 days, cells were first assessed for cytotoxicity using alamar Blue (Trek Diagnotstic Systems) for a CC50 reading. The toxicity of compound (CC50) was determined by adding 1/10th volume of alamar Blue to the media incubating the cells. After 4 h, the fluorescence signal from each well was read, with an excitation wavelength at 530 nm and an emission wavelength of 580 nm, using the Cytofluor Series 4000 (Perspective Biosystems). Plates were then rinsed thoroughly with Phosphate-Buffered Saline (PBS) (3 times 150 μl).

[2] = molecular target: T1, HCV NS3/4A protease complex, BMS strain (UniProt P27958, C1454S/C1711G, species not given); experiment: FRET peptide assay to monitor HCV NS3/4A proteolytic activity (BMS strain); assay type: biochemical, HCV genotype 1a; details: read-out: IC50 Range, HCV NS3/4A enzyme assay
T1 construct: other: HCV NS3/4A enzyme assay; class symbols; numeric values; fused on or other part: three-lysine solubilising tail at the C-terminus of NS4A; purified on Ni-NTA from the pET21b vector (His tag implied)
From the text: HCV NS3 protease complexes, derived from the BMS strain, H77 strain or J4L6S strain, were generated, as described below. These purified recombinant proteins were generated for use in a homogeneous assay (see below) to provide an indication of how effective compounds of the present disclosure would be in inhibiting HCV NS3 proteolytic activity.
Serum from an HCV-infected patient was obtained from Dr. T. Wright, San Francisco Hospital. An engineered full-length cDNA (compliment deoxyribonucleic acid) template of the HCV genome (BMS strain) was constructed from DNA fragments obtained by reverse transcription-PCR (RT-PCR) of serum RNA (ribonucleic acid) and using primers selected on the basis of homology between other genotype 1a strains. From the determination of the entire genome sequence, a genotype 1a was assigned to the HCV isolate according to the classification of Simmonds et al. (See P Simmonds, K A Rose, S Graham, S W Chan, F McOmish, B C Dow, E A Follett, P L Yap and H Marsden, J. Clin. Microbiol., 31(6), 1493-1503 (1993)). […] The infectious clones, H77 (1a genotype) and J4L6S (1b genotype) were obtained from R. Purcell (NIH) and the sequences are published in Genbank (AAB67036, see Yanagi, M., Purcell, R. H., Emerson, S. U. and Buldi, J. Proc. Natl. Acad. Sci. U.S.A. 94(16),8738-8743 (1997); AF054247, see Yanagi, M., St Claire, M., Shapiro, M., Emerson, S. U., Purcell, R. H. and Bukh, J, Virology 244 (1), 161-172. (1998)).
NS3/4A protease complex-containing fractions were pooled and loaded on a desalting column Superdex-S200 pre-equilibrated with buffer D (25 mM HEPES, pH 7.5, 20% glycerol, 300 mM NaCl, 0.2% TritonX-100, 10 mM βMB). Sample was loaded at a flow rate of 1 mL/min. NS3/4A protease complex-containing fractions were pooled and concentrated to approximately 0.5 mg/ml. The purity of the NS3/4A protease complexes, derived from the BMS, H77 and J4L6S strains, were judged to be greater than 90% by SDS-PAGE and mass spectrometry analyses. The enzyme was stored at −80° C., thawed on ice and diluted prior to use in assay buffer.
The purpose of this in vitro assay was to measure the inhibition of HCV NS3 protease complexes, derived from the BMS strain, H77 strain or J4L6S strain, as described above, by compounds of the present disclosure. This assay provides an indication of how effective compounds of the present disclosure would be in inhibiting HCV NS3 proteolytic activity.
In order to monitor HCV NS3/4A protease activity, an NS3/4A peptide substrate was used. The substrate was RET S1 (Resonance Energy Transfer Depsipeptide Substrate; AnaSpec, Inc. cat #22991)(FRET peptide), described by Taliani et al. in Anal. Biochem. 240(2):60-67 (1996). The sequence of this peptide is loosely based on the NS4A/NS4B natural cleavage site for the HCV NS3 protease except there is an ester linkage rather than an amide bond at the cleavage site. The peptide also contains a fluorescence donor, EDANS, near one end of the peptide and an acceptor, DABCYL, near the other end. The fluorescence of the peptide is quenched by […] resonance energy transfer (RET) between the donor and the acceptor, but as the NS3 protease cleaves the peptide the products are released from RET quenching and the fluorescence of the donor becomes apparent.
The peptide substrate was incubated with one of the three recombinant NS3/4A protease complexes, in the absence or presence of a compound of the present disclosure. The inhibitory effects of a compound were determined by monitoring the formation of fluorescent reaction product in real time using a Cytofluor Series 4000.
Assay buffer: 50 mM HEPES, pH 7.5; 0.15 M NaCl; 0.1% Triton; 15% Glycerol; 10 mM βME. Substrate: 2 μM final concentration (from a 2 mM stock solution in DMSO stored at −20° C.). HCV NS3/4A protease type 1a (1b), 2-3 nM final concentration (from a 5 μM stock solution in 25 mM HEPES, pH 7.5, 20% glycerol, 300 mM NaCl, 0.2% Triton-X100, 10 mM βME). […]

[3] = Huh-7, HCV replicon cell assay, numeric values, read-out: EC50 Range

SMILES: C=C[C@@H]1C[C@]1(NC(=O)[C@@H]1C[C@@H](Oc2cc(-c3ccccc3)nc3cc(OC)ccc23)CN1C(=O)[C@@H](Nc1nc(-c2ccc(F)cc2)cs1)C(C)(C)C)C(=O)NS(=O)(=O)C1CC1 [Example 5]
- EC50 ([1]; Huh-7, read-out: EC50 Range): 1 to 50 nM
- IC50 ([2]; class symbols): 1 to 20 nM

SMILES: C=C[C@@H]1C[C@]1(NC(=O)[C@@H]1C[C@@H](Oc2ncc(OC)c3ccc(Cl)cc23)CN1C(=O)[C@@H](Nc1nc(-c2ccccc2)c(C)s1)C(C)(C)C)C(=O)NS(=O)(=O)C1CC1 [Example 9, (2S,4R)-4-(7-chloro-4-methoxyisoquinolin-1-yloxy)-N-((1R,2S)-1-(cyclopropylsulfonylcarbamoyl)-2-vinylcyclopropyl)-1-((S)-3,3-dimethyl-2-(5-methyl-4-phenylthiazol-2-ylamino)butanoyl)pyrrolidine-2-carboxamide]
- EC50 ([1]; Huh-7, read-out: EC50 Range): 1 to 50 nM
- IC50 ([2]; class symbols): 1 to 20 nM

SMILES: C=C[C@@H]1C[C@]1(NC(=O)[C@@H]1C[C@@H](Oc2ncc(OC)c3ccc(Cl)cc23)CN1C(=O)[C@@H](Nc1nc(-c2ccccc2)cs1)C(C)(C)C)C(=O)NS(=O)(=O)C1CC1 [Example 20]
- EC50 [1, 3]: 3.9 nM
- IC50 ([2]; numeric values): 3 nM

SMILES: C=C[C@@H]1C[C@]1(NC(=O)[C@@H]1C[C@@H](Oc2ncc(OC)c3ccc(Cl)cc23)CN1C(=O)[C@@H](Nc1nc(-c2ccccc2OC)cs1)C(C)(C)C)C(=O)NS(=O)(=O)C1CC1 [Example 33]
- EC50 [1, 3]: 6.84 nM
- IC50 ([2]; numeric values): 9 nM

SMILES: C=C[C@@H]1C[C@]1(NC(=O)[C@@H]1C[C@@H](Oc2ncc(OC)c3ccc(Cl)cc23)CN1C(=O)[C@@H](Nc1nc(-c2ccc3c(c2)OCCO3)cs1)C(C)(C)C)C(=O)NS(=O)(=O)C1CC1 [Example 36]
- EC50 ([1]; Huh-7, read-out: EC50 Range): 1 to 50 nM
- IC50 ([2]; class symbols): 1 to 20 nM

SMILES: C=C[C@@H]1C[C@]1(NC(=O)[C@@H]1C[C@@H](Oc2ncc(OC)c3ccc(Cl)cc23)CN1C(=O)[C@@H](Nc1nc(-c2cnccn2)cs1)C(C)(C)C)C(=O)NS(=O)(=O)C1CC1 [Example 26]
- EC50 ([1]; Huh-7, read-out: EC50 Range): 1 to 50 nM
- IC50 ([2]; class symbols): 1 to 20 nM

SMILES: COc1cnc(O[C@@H]2C[C@@H](C(=O)N[C@]3(C(=O)NS(=O)(=O)C4CC4)C[C@H]3CC(F)F)N(C(=O)[C@@H](Nc3nc(-c4ccc(Oc5ccccc5)cc4)cs3)C(C)(C)C)C2)c2cc(Cl)ccc12 [Example 99]
- EC50 ([1]; Huh-7, read-out: EC50 Range): 50 to 200 nM
- IC50 ([2]; class symbols): 20 to 200 nM

SMILES: C=C[C@@H]1C[C@]1(NC(=O)[C@@H]1C[C@@H](Oc2ncc(OC)c3ccc(Cl)cc23)CN1C(=O)[C@@H](Nc1nc(-c2ccsc2)cs1)C(C)(C)C)C(=O)NS(=O)(=O)C1CC1 [Example 93]
- EC50 ([1]; Huh-7, read-out: EC50 Range): 1 to 50 nM
- IC50 ([2]; class symbols): 1 to 20 nM

SMILES: C=C[C@@H]1C[C@]1(NC(=O)[C@@H]1C[C@@H](Oc2ncc(OC)c3ccc(Cl)cc23)CN1C(=O)[C@@H](Nc1nc(-c2ccc(OC(F)(F)F)cc2)cs1)C(C)(C)C)C(=O)NS(=O)(=O)C1CC1 [Example 17]
- EC50 [1, 3]: 8.95 nM
- IC50 ([2]; numeric values): 11 nM

SMILES: C=C[C@@H]1C[C@]1(NC(=O)[C@@H]1C[C@@H](Oc2ncc(OC)c3ccc(Cl)cc23)CN1C(=O)[C@@H](Nc1nc(-c2ccc3ccccc3c2)cs1)C(C)(C)C)C(=O)NS(=O)(=O)C1CC1 [Example 11]
- EC50 ([1]; Huh-7, read-out: EC50 Range): 1 to 50 nM
- IC50 ([2]; class symbols): 1 to 20 nM

SMILES: C=C[C@@H]1C[C@]1(NC(=O)[C@@H]1C[C@@H](Oc2ncc(OC)c3ccc(Cl)cc23)CN1C(=O)[C@@H](Nc1nc(-c2ccc(Br)cc2)c(Br)s1)C(C)(C)C)C(=O)NS(=O)(=O)C1CC1 [Example 19]
- EC50 ([1]; Huh-7, read-out: EC50 Range): 1 to 50 nM
- IC50 ([2]; class symbols): 1 to 20 nM

SMILES: C=C[C@@H]1C[C@]1(NC(=O)[C@@H]1C[C@@H](Oc2ncc(OC)c3ccc(Cl)cc23)CN1C(=O)[C@@H](Nc1nc(-c2ccc(F)c(Cl)c2)cs1)C(C)(C)C)C(=O)NS(=O)(=O)C1CC1 [Example 52]
- EC50 ([1]; Huh-7, read-out: EC50 Range): 1 to 50 nM
- IC50 ([2]; class symbols): 1 to 20 nM

SMILES: C=C[C@@H]1C[C@]1(NC(=O)[C@@H]1C[C@@H](Oc2ncc(OC)c3ccc(Cl)cc23)CN1C(=O)[C@@H](Nc1nc(-c2ccc(F)cc2F)cs1)C(C)(C)C)C(=O)NS(=O)(=O)C1CC1 [Example 13]
- EC50 ([1]; Huh-7, read-out: EC50 Range): 1 to 50 nM
- IC50 ([2]; class symbols): 1 to 20 nM

SMILES: C=C[C@@H]1C[C@]1(NC(=O)[C@@H]1C[C@@H](Oc2ncc(OC)c3ccc(Cl)cc23)CN1C(=O)[C@@H](Nc1nc(-c2ccc(C#N)cc2)cs1)C(C)(C)C)C(=O)NS(=O)(=O)C1CC1 [Example 21]
- EC50 ([1]; Huh-7, read-out: EC50 Range): 1 to 50 nM
- IC50 ([2]; class symbols): 1 to 20 nM

SMILES: C=C[C@@H]1C[C@]1(NC(=O)[C@@H]1C[C@@H](Oc2ncc(OC)c3ccc(Cl)cc23)CN1C(=O)[C@@H](Nc1nc(-c2ccc(F)c(F)c2)cs1)C(C)(C)C)C(=O)NS(=O)(=O)C1CC1 [Example 6, (2S,4R)-4-(7-chloro-4-methoxyisoquinolin-1-yloxy)-N-((1R,2S)-1-(cyclopropylsulfonylcarbamoyl)-2-vinylcyclopropyl)-1-((S)-2-(4-(3,4-difluorophenyl)thiazol-2-ylamino)-3,3-dimethylbutanoyl)pyrrolidine-2-carboxamide]
- EC50 ([1]; Huh-7, read-out: EC50 Range): 1 to 50 nM
- IC50 ([2]; class symbols): 1 to 20 nM

SMILES: C=C[C@@H]1C[C@]1(NC(=O)[C@@H]1C[C@@H](Oc2ncc(OC)c3ccc(Cl)cc23)CN1C(=O)[C@@H](Nc1nc(-c2cc(-c3ccccc3)no2)cs1)C(C)(C)C)C(=O)NS(=O)(=O)C1CC1 [Example 85]
- EC50 ([1]; Huh-7, read-out: EC50 Range): 1 to 50 nM
- IC50 ([2]; class symbols): 1 to 20 nM

SMILES: C=C[C@@H]1C[C@]1(NC(=O)[C@@H]1C[C@@H](Oc2ncc(OC)c3ccc(Cl)cc23)CN1C(=O)[C@@H](Nc1nc(-c2cc(Cl)c(C)cc2OC)cs1)C(C)(C)C)C(=O)NS(=O)(=O)C1CC1 [Example 59]
- EC50 ([1]; Huh-7, read-out: EC50 Range): 1 to 50 nM
- IC50 ([2]; class symbols): 1 to 20 nM
